From patent publication US8003785B2 (Takeda Pharmaceutical Company Limited, priority 2008, dated 2011) come the findings set out here.

The target of this assay is T1, PLK1 (Homo sapiens, UniProt P53350).
T1 construct: Full-length, active GST-PLK1 is purified from Sf9 insect cells; made in house; host or cells: Sf9 insect cells
T1 sequence (P53350 whole entry): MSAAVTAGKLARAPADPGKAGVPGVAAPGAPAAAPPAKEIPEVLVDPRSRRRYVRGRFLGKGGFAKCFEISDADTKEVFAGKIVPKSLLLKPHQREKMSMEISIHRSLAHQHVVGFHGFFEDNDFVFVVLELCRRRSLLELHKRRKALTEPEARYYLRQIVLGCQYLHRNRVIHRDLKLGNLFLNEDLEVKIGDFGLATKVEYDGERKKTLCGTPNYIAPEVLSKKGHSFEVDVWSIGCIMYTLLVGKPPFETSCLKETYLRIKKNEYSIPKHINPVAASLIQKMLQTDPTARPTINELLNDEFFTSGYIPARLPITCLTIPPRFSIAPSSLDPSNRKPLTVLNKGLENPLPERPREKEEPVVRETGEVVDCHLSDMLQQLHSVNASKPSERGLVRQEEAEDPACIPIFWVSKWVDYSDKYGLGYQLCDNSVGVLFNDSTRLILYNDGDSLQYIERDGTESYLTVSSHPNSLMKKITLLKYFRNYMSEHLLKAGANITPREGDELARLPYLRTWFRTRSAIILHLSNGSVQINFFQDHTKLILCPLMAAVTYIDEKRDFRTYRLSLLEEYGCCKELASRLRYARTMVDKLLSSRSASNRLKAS
Briefly: Biochemical Characterization Assay: HTRF kinase assay, GST-PLK1 phosphorylation of GST-p53. The following applies: GST-PLK1, GST-p53 substrate, ATP. The method in brief: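 Full-length active GST-PLK1 (Sf9, 3 ug/mL) phosphorylated full-length GST-p53 (E. coli) in Kinase Assay Buffer for 35 min at 37 °C. Stopped with EDTA; phospho-p53 detected by HTRF with anti-phospho-p53, Eu-anti-rabbit and APC-anti-GST antibodies.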
Regarding `COc1cc(C(=O)NC2CCNCC2)ccc1Nc1ncc2c(n1)N(C1CCCC1)CC(F)(F)C(=O)N2C` [Example I-72, 4-(9-cyclopentyl-7,7-difluoro-5-methyl-6-oxo-6,7,8,9-tetrahydro-5H-pyrimido[4,5-b][1,4]diazepin-2-ylamino)-3-methoxy-N-piperidin-4-yl-benzamide], the IC50 fell in the range of 1 to 50 nM. The same measure for `COc1cc(C(=O)NCCCNC(=O)OCC2c3ccccc3-c3ccccc32)ccc1Nc1ncc2c(n1)N(C1CCCC1)CC(F)(F)C(=O)N2C` [Example I-73, {3-[4-(9-cyclopentyl-7,7-difluoro-5-methyl-6-oxo-6,7,8,9-tetrahydro-5H-pyrimido[4,5-b][1,4]diazepin-2-ylamino)-3-methoxy-benzoylamino]-propyl}-carbamic acid 9H-fluoren-9-ylmethyl ester]: 51 to 500 nM. Turning to `COc1cc(C(=O)NCCCN)ccc1Nc1ncc2c(n1)N(C1CCCC1)CC(F)(F)C(=O)N2C` [Example I-74, N-(3-amino-propyl)-4-(9-cyclopentyl-7,7-difluoro-5-methyl-6-oxo-6,7,8,9-tetrahydro-5H-pyrimido[4,5-b][1,4]diazepin-2-ylamino)-3-methoxy-benzamide], the half-maximal inhibitory concentration (IC50) is 1 to 50 nM. Regarding `COc1cc(C(=O)NC2CCN(CCF)CC2)ccc1Nc1ncc2c(n1)N(C1CCCC1)CC(F)(F)C(=O)N2C` [Example I-75, 4-(9-cyclopentyl-7,7-difluoro-5-methyl-6-oxo-6,7,8,9-tetrahydro-5H-pyrimido[4,5-b][1,4]diazepin-2-ylamino)-N-[1-(2-fluoro-ethyl)-piperidin-4-yl]-3-methoxy-benzamide], the IC50 lay within 1 to 50 nM. The same measure for `COc1cc(C(=O)NC2CCN(CCCS(C)(=O)=O)CC2)ccc1Nc1ncc2c(n1)N(C1CCCC1)CC(F)(F)C(=O)N2C` [Example I-76, 4-(9-cyclopentyl-7,7-difluoro-5-methyl-6-oxo-6,7,8,9-tetrahydro-5H-pyrimido[4,5-b][1,4]diazepin-2-ylamino)-N-[1-(3-methanesulfonyl-propyl)-piperidin-4-yl]-3-methoxy-benzamide]: 1 to 50 nM; for `COc1cc(C(=O)NC2CCN(CC(F)(F)F)CC2)ccc1Nc1ncc2c(n1)N(C1CCCC1)CC(F)(F)C(=O)N2C` [Example I-77, 4-(9-cyclopentyl-7,7-difluoro-5-methyl-6-oxo-6,7,8,9-tetrahydro-5H-pyrimido[4,5-b][1,4]diazepin-2-ylamino)-3-methoxy-N-[1-(2,2,2-trifluoro-ethyl)-piperidin-4-yl]-benzamide]: 1 to 50 nM; for `COc1cc(C(=O)NCCCN(C)C)ccc1Nc1ncc2c(n1)N(C1CCCC1)CC(F)(F)C(=O)N2C` [Example I-78, 4-(9-cyclopentyl-7,7-difluoro-5-methyl-6-oxo-6,7,8,9-tetrahydro-5H-pyrimido[4,5-b][1,4]diazepin-2-ylamino)-N-(3-dimethylamino-propyl)-3-methoxy-benzamide]: 1 to 50 nM. The same measure for `COc1cc(C(=O)NCCCN2CCOCC2)ccc1Nc1ncc2c(n1)N(C1CCCC1)CC(F)(F)C(=O)N2C` [Example I-79, 4-(9-cyclopentyl-7,7-difluoro-5-methyl-6-oxo-6,7,8,9-tetrahydro-5H-pyrimido[4,5-b][1,4]diazepin-2-ylamino)-3-methoxy-N-(3-morpholin-4-yl-propyl)-benzamide]: 1 to 50 nM; for `COc1cc(C(=O)NCCCN2CCCC2)ccc1Nc1ncc2c(n1)N(C1CCCC1)CC(F)(F)C(=O)N2C` [Example I-80, 4-(9-cyclopentyl-7,7-difluoro-5-methyl-6-oxo-6,7,8,9-tetrahydro-5H-pyrimido[4,5-b][1,4]diazepin-2-ylamino)-3-methoxy-N-(3-pyrrolidin-1-yl-propyl)-benzamide]: 1 to 50 nM.

For the molecule `COc1cc(C(=O)N[C@@H]2CCN(C(=O)OC(C)(C)C)C2)ccc1Nc1ncc2c(n1)N(C1CCCC1)CC(F)(F)C(=O)N2C` [Example I-81, R-3-[4-(9-cyclopentyl-7,7-difluoro-5-methyl-6-oxo-6,7,8,9-tetrahydro-5H-pyrimido[4,5-b][1,4]diazepin-2-ylamino)-3-methoxy-benzoylamino]-pyrrolidine-1-carboxylic acid tert-butyl ester], the IC50 was 51 to 500 nM. The same measure for `COc1cc(C(=O)N[C@H]2CCN(C(=O)OC(C)(C)C)C2)ccc1Nc1ncc2c(n1)N(C1CCCC1)CC(F)(F)C(=O)N2C` [Example I-82, S-3-[4-(9-cyclopentyl-7,7-difluoro-5-methyl-6-oxo-6,7,8,9-tetrahydro-5H-pyrimido[4,5-b][1,4]diazepin-2-ylamino)-3-methoxy-benzoylamino]-pyrrolidine-1-carboxylic acid tert-butyl ester]: 1 to 50 nM; for `COc1cc(C(=O)N[C@H]2CCNC2)ccc1Nc1ncc2c(n1)N(C1CCCC1)CC(F)(F)C(=O)N2C` [Example I-83, S-4-(9-cyclopentyl-7,7-difluoro-5-methyl-6-oxo-6,7,8,9-tetrahydro-5H-pyrimido[4,5-b][1,4]diazepin-2-ylamino)-3-methoxy-N—(S)-pyrrolidin-3-yl-benzamide]: 1 to 50 nM. The same measure for `COc1cc(C(=O)NCCCN2CCCCC2)ccc1Nc1ncc2c(n1)N(C1CCCC1)CC(F)(F)C(=O)N2C` [Example I-84, 4-(9-cyclopentyl-7,7-difluoro-5-methyl-6-oxo-6,7,8,9-tetrahydro-5H-pyrimido[4,5-b][1,4]diazepin-2-ylamino)-3-methoxy-N-(3-piperidin-1-yl-propyl)-benzamide]: 1 to 50 nM; for `COc1cc(C(=O)NC2CC(C)(C)N(C)C(C)(C)C2)ccc1Nc1ncc2c(n1)N(C1CCCC1)CC(F)(F)C(=O)N2C` [Example I-85, 4-(9-cyclopentyl-7,7-difluoro-5-methyl-6-oxo-6,7,8,9-tetrahydro-5H-pyrimido[4,5-b][1,4]diazepin-2-ylamino)-3-methoxy-N-(1,2,2,6,6-pentamethyl-piperidin-4-yl)-benzamide]: 1 to 50 nM; for `COc1cc(C(=O)NCCCN2CCN(C)CC2)ccc1Nc1ncc2c(n1)N(C1CCCC1)CC(F)(F)C(=O)N2C` [Example I-87, 4-(9-cyclopentyl-7,7-difluoro-5-methyl-6-oxo-6,7,8,9-tetrahydro-5H-pyrimido[4,5-b][1,4]diazepin-2-ylamino)-3-methoxy-N-[3-(4-methyl-piperazin-1-yl)-propyl]-benzamide]: 1 to 50 nM. Next, `COc1cc(C(=O)NC2CCN(C(=O)C(C)(C)N)CC2)ccc1Nc1ncc2c(n1)N(C1CCCC1)CC(F)(F)C(=O)N2C` [Example I-88, N-[1-(2-amino-2-methyl-propionyl)-piperidin-4-yl]-4-(9-cyclopentyl-7,7-difluoro-5-methyl-6-oxo-6,7,8,9-tetrahydro-5H-pyrimido[4,5-b][1,4]diazepin-2-ylamino)-3-methoxy-benzamide]: 1 to 50 nM; `COc1cc(C(=O)N[C@@H]2CCNC(=O)C2)ccc1Nc1ncc2c(n1)N(C1CCCC1)CC(F)(F)C(=O)N2C` [Example I-89, R-4-(9-cyclopentyl-7,7-difluoro-5-methyl-6-oxo-6,7,8,9-tetrahydro-5H-pyrimido[4,5-b][1,4]diazepin-2-ylamino)-3-methoxy-N-(2-oxo-piperidin-4-yl)-benzamide]: 1 to 50 nM.
